Biological target: T1, Human complement C1s enzyme (Homo sapiens, UniProt P09871)
T1 construct: purified from human serum, Complement Technology, Inc; purchased Complement Technology, Inc; host or cells: human serum (plasma-derived native protein)
T1 sequence (P09871 438-688 limits assumed): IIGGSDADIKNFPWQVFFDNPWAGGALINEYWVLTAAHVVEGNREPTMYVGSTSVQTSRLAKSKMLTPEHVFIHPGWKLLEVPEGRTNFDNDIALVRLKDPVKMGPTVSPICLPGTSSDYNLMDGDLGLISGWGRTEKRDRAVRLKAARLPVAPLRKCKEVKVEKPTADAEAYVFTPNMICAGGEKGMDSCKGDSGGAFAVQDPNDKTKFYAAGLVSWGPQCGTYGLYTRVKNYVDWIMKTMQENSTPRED
T1 sequence (P09871 16-437 partner limits assumed): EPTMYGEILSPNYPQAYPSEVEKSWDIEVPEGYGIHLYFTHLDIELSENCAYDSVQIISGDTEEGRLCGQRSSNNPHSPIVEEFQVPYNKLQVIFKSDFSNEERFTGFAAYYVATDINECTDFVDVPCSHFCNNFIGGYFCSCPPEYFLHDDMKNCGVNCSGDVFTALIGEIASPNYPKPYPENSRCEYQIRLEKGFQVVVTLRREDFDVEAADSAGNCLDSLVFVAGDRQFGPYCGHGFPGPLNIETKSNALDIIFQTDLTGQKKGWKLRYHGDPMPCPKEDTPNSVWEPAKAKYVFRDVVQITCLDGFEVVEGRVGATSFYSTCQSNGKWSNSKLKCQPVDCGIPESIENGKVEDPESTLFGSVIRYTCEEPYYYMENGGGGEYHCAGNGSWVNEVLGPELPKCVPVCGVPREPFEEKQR
Assay: Human C1s enzyme assay
Type: biochemical
Settings: human complement C1s enzyme 1.16 nM, substrate Z-L-Lys-SBzl, A405; read-out: IC50 (Stars)
Summary of the method: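 Serum-purified human C1s (1.16 nM final) preincubated 5 min at room temperature with compound in 50 mM Tris, 1 M NaCl, pH 7.5. Z-L-Lys-SBzl and DTNB added at 100 μM each; A405 recorded every 30 s. IC50 from nonlinear regression of reaction rates versus compound concentration.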

| Structure (SMILES) | IC50 [µM] |
| --- | --- |
| O=C(Cn1c(-c2ccccc2)cnc(NCc2ccc3oc4ccccc4c3c2)c1=O)NCc1cc2cnccc2[nH]1 [Compound 176, N-((1H-pyrrolo[3,2-c]pyridin-2-yl)methyl)-2-(3-((dibenzo [b,d]furan-2-ylmethyl)amino)-2-oxo-6-phenylpyrazin-1(2H)-yl)acetamide] | < 0.1 |
| O=C(Cn1c(-c2ccccc2)cnc(NC(=O)c2ccc(Oc3ccccc3)cc2)c1=O)NCc1cc2cnccc2[nH]1 [Compound 177, N-(4-(2-(((1H-pyrrolo[3,2-c]pyridin-2-yl)methyl)amino)-2-oxoethyl)-3-oxo-5-phenyl-3,4-dihydropyrazin-2-yl)-4-phen-oxybenzamide] | < 0.1 |
| O=C(Cn1c(-c2ccccc2)cnc(NC(=O)c2ccc3c(c2)-c2ccccc2C3(F)F)c1=O)NCc1cc2cnccc2[nH]1 [Compound 179, N-(4-(2-(((1H-pyrrolo[3,2-c]pyridin-2-yl)methyl)amino)-2-oxoethyl)-3-oxo-5-phenyl-3,4-dihydropyrazin-2-yl)-9,9-difluoro-9H-fluorene-3-carbox-amide] | < 0.1 |
| CC1(c2ccc(CCCNc3cnc(-c4ccccc4)n(CC(=O)NCc4cc5cnccc5[nH]4)c3=O)cc2)COC1 [Compound 180, N-((1H-pyrrolo[3,2-c]pyridine-2-yl)methyl)-2-(5-((3-(4-(3-methyloxetan-3-yl)phenyl)propyl)amino)-6-oxo-2-phenylpyrimidin-1(6H)-yl)acetamide] | < 0.1 |
| O=C(Cn1c(-c2ccccc2)ncc(N2Cc3ccccc3C2)c1=O)NCc1cc2cnccc2[nH]1 [Compound 184, N-((1H-pyrrolo[3,2-c]pyridine-2-yl)methyl)-2-(5-(isoindolin-2-yl)-6-oxo-2-phenylpyrimidin-1(6H)-yl)acetamide] | > 1 |
| CO[C@@H]1CO[C@H]2[C@@H]1OC[C@H]2Oc1ccc(-c2ncc(NCCCc3ccccc3)c(=O)n2CC(=O)NCc2cc3cnccc3[nH]2)cc1 [Compound 189, N-((1H-pyrrolo[3,2-c]pyridine-2-yl)methyl)-2-(2-(4-(((3R,3aR,6R,6aR)-6-methoxyhexahydrofuro[3,2-b]furan-3-yl)oxy)phenyl)-6-oxo-5-((3-phenylpropyl)amino)pyrimidin-1(6H)-yl)acetamide] | < 0.1 |
| O=C(Cn1c(-c2ccccc2)ncc(NCCCO[C@@H]2CO[C@H]3[C@@H]2OC[C@H]3O)c1=O)NCc1cc2cnccc2[nH]1 [Compound 190, N-((1H-pyrrolo[3,2-c]pyridine-2-yl)methyl)-2-(5-((3-(((3R,3aR,6R,6aR)-6-hydroxyhexahydrofuro[3,2-b]furan-3-yl)oxy)propyl)amino)-6-oxo-2-phenylpyrimidin-1(6H)-yl)acetamide] | < 0.1 |
| CO[C@@H]1CO[C@H]2[C@@H]1OC[C@H]2Oc1ccc(CCCNc2cnc(-c3ccccc3)n(CC(=O)NCc3cc4cnccc4[nH]3)c2=O)cc1 [Compound 192, N-((1H-pyrrolo[3,2-c]pyridine-2-yl)methyl)-2-(5-((3-(4-(((3R,3aR,6R,6aR)-6-methoxyhexahydrofuro[3,2-b]furan-3-yl)oxy)phenyl)propyl)amino)-6-oxo-2-phenylpyrimidin-1(6H)-yl)acetamide] | < 0.1 |
| O=C(Cn1c(-c2ccccc2)ncc(NCCCc2ccc(OC3CS(=O)(=O)C3)cc2)c1=O)NCc1cc2cnccc2[nH]1 [Compound 193, N-((1H-pyrrolo[3,2-c]pyridine-2-yl)methyl)-2-(5-((3-(4-((1,1-dioxidothietan-3-yl)oxy)phenyl)propyl)amino)-6-oxo-2-phenylpyrimidin-1(6H)-yl) acetamide] | < 0.1 |
| CS(=N)(=O)c1ccc(-c2ncc(NCCCc3ccccc3)c(=O)n2CC(=O)NCc2cc3cnccc3[nH]2)cc1 (centres unmarked) [Compound 200, N-((1H-pyrrolo[3,2-c]pyridine-2-yl)methyl)-2-(2-(4-(S-methylsulfonimidoyl)phenyl)-6-oxo-5-((3-phenylpropyl)amino)pyrimidin-1(6H)-yl)acetamide] | < 0.1 |
| O=C(Cn1c(-c2ccccc2)ncc(NC(=O)c2ccc3c(c2)oc2ccccc23)c1=O)NCc1cc2cnccc2[nH]1 [Compound 203, N-(1-(2-(((1H-pyrrolo[3,2-c]pyridin-2-yl)methyl)amino)-2-oxoethyl)-6-oxo-2-phenyl-1,6-dihydropyrimidin-5-yl)dibenzo [b,d]furan-3-carboxamide] | < 0.1 |
| O=C(Cn1c(-c2ccccc2)ncc(NC(=O)c2ccc3c(c2)C(F)(F)c2ccccc2-3)c1=O)NCc1cc2cnccc2[nH]1 [Compound 204, N-(1-(2-(((1H-pyrrolo[3,2-c]pyridin-2-yl)methyl)amino)-2-oxoethyl)-6-oxo-2-phenyl-1,6-dihydropyrimidin-5-yl)-9,9-difluoro-9H-fluorene-2-carbox-amide] | < 0.1 |
| O=C(Cn1c(-c2ccccc2)ncc(NC(=O)c2coc(-c3cccc(F)c3)n2)c1=O)NCc1cc2cnccc2[nH]1 [Compound 205, N-(1-(2-(((1H-pyrrolo[3,2-c]pyridine-2-yl)methyl)amino)-2-oxoethyl)-6-oxo-2-phenyl-1,6-dihydropyrimidin-5-yl)-2-(3-fluorophenyl)oxazole-4-carboxamide] | < 0.1 |
| O=C(Cn1c(-c2ccccc2)ncc(NC(=O)c2ccc(-c3ccccc3)o2)c1=O)NCc1cc2cnccc2[nH]1 [Compound 206, N-(1-(2-(((1H-pyrrolo[3,2-c]pyridin-2-yl)methyl)amino)-2-oxoethyl)-6-oxo-2-phenyl-1,6-dihydropyrimidin-5-yl)-5-phen-ylfuran-2-carboxamide] | < 0.1 |

Continued, values first:

| IC50 [µM] | Structure (SMILES) |
| --- | --- |
| < 0.1 | O=C(Cn1c(-c2ccccc2)ncc(NC(=O)c2ccc(-c3ccccc3)cc2F)c1=O)NCc1cc2cnccc2[nH]1 [Compound 166, N-(1-(2-(((1H-pyrrolo[3,2-c]pyridine-2-yl)methyl)amino)-2-oxoethyl)-6-oxo-2-phenyl-1,6-dihydropyrimidin-5-yl)-3-fluoro-[1,1′-biphenyl]-4-carboxamide] |
| < 0.1 | O=C(Cn1c(-c2ccccc2)ncc(NC(=O)c2cccc(-c3nccs3)c2)c1=O)NCc1cc2cnccc2[nH]1 [Compound 167, N-(1-(2-(((1H-pyrrolo[3,2-c]pyridine-2-yl)methyl)amino)-2-oxoethyl)-6-oxo-2-phenyl-1,6-dihydropyrimidin-5-yl)-3-(thiazol-2-yl)benzamide] |
| < 0.1 | O=C(Cn1c(-c2ccccc2)ncc(NC(=O)c2cnc(-c3ccccc3)[nH]2)c1=O)NCc1cc2cnccc2[nH]1 [Compound 168, N-(1-(2-(((1H-pyrrolo[3,2-c]pyridin-2-yl)methyl)amino)-2-oxoethyl)-6-oxo-2-phenyl-1,6-dihydropyrimidin-5-yl)-2-phenyl-1H-imidazole-5-carbox-amide] |
| < 0.1 | O=C(Cn1c(-c2ccccc2)ncc(NC(=O)c2ncc(-c3ccccc3)[nH]2)c1=O)NCc1cc2cnccc2[nH]1 [Compound 169, N-(1-(2-(((1H-pyrrolo[3,2-c]pyridin-2-yl)methyl)amino)-2-oxoethyl)-6-oxo-2-phenyl-1,6-dihydropyrimidin-5-yl)-5-phen-yl-1H-imidazole-2-carbox-amide] |
| < 0.1 | O=C(Cn1c(-c2ccccc2)ncc(NC(=O)c2ncc(-c3ccccc3)s2)c1=O)NCc1cc2cnccc2[nH]1 [Compound 170, N-(1-(2-(((1H-pyrrolo[3,2-c]pyridin-2-yl)methyl)amino)-2-oxoethyl)-6-oxo-2-phenyl-1,6-dihydropyrimidin-5-yl)-5-phen-ylthiazole-2-carboxamide] |
| < 0.1 | O=C(Cn1c(-c2ccccc2)ncc(NC(=O)c2ncc(-c3ccccc3)o2)c1=O)NCc1cc2cnccc2[nH]1 [Compound 171, N-(1-(2-(((1H-pyrrolo[3,2-c]pyridine-2-yl)methyl)amino)-2-oxoethyl)-6-oxo-2-phenyl-1,6-dihydropyrimidin-5-yl)-5-phenyloxazole-2-carboxamide] |
| < 0.1 | O=C(Cn1c(-c2ccccc2)ncc(NC(=O)c2ccc(-c3nccs3)cc2)c1=O)NCc1cc2cnccc2[nH]1 [Compound 172, N-(1-(2-(((1H-pyrrolo[3,2-c]pyridine-2-yl)methyl)amino)-2-oxoethyl)-6-oxo-2-phenyl-1,6-dihydropyrimidin-5-yl)-4-(thiazol-2-yl)benzamide] |
| < 0.1 | O=C(Cn1c(-c2ccccc2)ncc(NC(=O)c2ccc(-c3cnc[nH]3)cc2)c1=O)NCc1cc2cnccc2[nH]1 [Compound 174, N-(1-(2-(((1H-pyrrolo[3,2-c]pyridine-2-yl)methyl)amino)-2-oxoethyl)-6-oxo-2-phenyl-1,6-dihydropyrimidin-5-yl)-4-(1H-imidazol-5-yl)benzamide] |
| < 0.1 | O=C(Cn1c(-c2ccccc2)ncc(NC(=O)c2ccc(-c3ncc[nH]3)cc2)c1=O)NCc1cc2cnccc2[nH]1 [Compound 175, N-(1-(2-(((1H-pyrrolo[3,2-c]pyridin-2-yl)methyl)amino)-2-oxoethyl)-6-oxo-2-phenyl-1,6-dihydropyrimidin-5-yl)-4-(1H-imidazol-2-yl)benzamide] |

Reference: patent US20260184707A1, “PHARMACEUTICAL COMPOUNDS FOR THE TREATMENT OF COMPLEMENT MEDIATED DISORDERS” (ALEXION PHARMACEUTICALS, INC., priority 2022, published 2026)
